Results: ChEMBL document CHEMBL4476879, “MST1 kinase inhibitors and methods of their use” (2013)
Activity calls are given as the source filed them.

Columns and labels:
Assay type in all cases: functional, organism-based
Mus musculus [1] = assay: Prophylactic anti-inflammatory activity in mouse model of experimental autoimmune encephalomyelitis disease assessed as reduction in disease clinical scores at 10 mg/kg, po BID for 22 days starting on day (-1) before MOG peptide immunization
Mus musculus [2] = assay: Prophylactic anti-inflammatory activity in mouse model of experimental autoimmune encephalomyelitis disease assessed as reduction in disease clinical scores at 30 mg/kg, po BID for 22 days starting on day (-1) before MOG peptide immunization
Mus musculus [3] = assay: Prophylactic anti-inflammatory activity in mouse model of experimental autoimmune encephalomyelitis disease assessed as reduction in disease clinical scores at 100 mg/kg, po for 22 days (dosed BID on days-1 to 9 and QD on days 10 to 21) starting on day (-1) before MOG peptide immunization
Mus musculus [4] = assay: Therapeutic anti-inflammatory activity in mouse model of experimental autoimmune encephalomyelitis disease assessed as reduction in disease clinical scores at 10 mg/kg, po BID for 14 days starting on day 9 after MOG peptide immunization
Mus musculus [5] = assay: Therapeutic anti-inflammatory activity in mouse model of experimental autoimmune encephalomyelitis disease assessed as reduction in disease clinical scores at 30 mg/kg, po BID for 14 days starting on day 9 after MOG peptide immunization
Mus musculus [6] = assay: Therapeutic anti-inflammatory activity in mouse model of experimental autoimmune encephalomyelitis disease assessed as reduction in disease clinical scores at 100 mg/kg, po for 14 days ( dosed BID on days 9 to 13 and QD on day 14 to 23 starting on day 9 after MOG peptide immunization
Rattus norvegicus [7] = assay: Therapeutic anti-inflammatory activity in rat model of experimental autoimmune encephalomyelitis disease assessed as reduction in disease severity clinical scores at 10 to 50 mg/kg, po BID starting on day 9 after MOG peptide immunization
Mus musculus [8] = assay: Therapeutic anti-inflammatory activity in mouse model of collagen-induced arthritis disease assessed as reduction in cumulative arthritis scores at 10 to 100 mg/kg, po BID for 21 days starting on day 20 after immunization
Mus musculus [9] = assay: Therapeutic anti-inflammatory activity in mouse model of collagen-induced arthritis disease assessed as effect on ankle thickness at 10 to 100 mg/kg, po BID for 21 days starting on day 20 after immunization
Rattus norvegicus [10] = assay: Therapeutic anti-inflammatory activity in rat model of collagen-induced arthritis disease assessed as reduction in cumulative arthritis scores at 10 to 25 mg/kg, po BID for 21 days starting on day 11 after immunization
Rattus norvegicus [11] = assay: Therapeutic anti-inflammatory activity in rat model of collagen-induced arthritis disease assessed as reduction in cumulative arthritis scores at 50 mg/kg, po QD for 21 days starting on day 11 after immunization
Rattus norvegicus [12] = assay: Therapeutic anti-inflammatory activity in rat model of collagen-induced arthritis disease assessed as effect on ankle thickness by measuring water displacement at 10 to 25 mg/kg, po BID for 21 days starting on day 11 after immunization
Rattus norvegicus [13] = assay: Therapeutic anti-inflammatory activity in rat model of collagen-induced arthritis disease assessed as effect on ankle thickness by measuring water displacement at 50 mg/kg, po QD for 21 days starting on day 11 after immunization
Mus musculus [14] = assay: Anti-inflammatory activity in mouse model of concanavalin A-induced hepatitis assessed as reduction in TNFalpha level at 10 to 100 mg/kg, po dosed dosed 16 hrs and 1 hr before and 8 hrs after concanavalin A challenge
Mus musculus [15] = assay: Anti-inflammatory activity in mouse model of concanavalin A-induced hepatitis assessed as reduction in IL6 level at 10 to 100 mg/kg, po dosed dosed 16 hrs and 1 hr before and 8 hrs after concanavalin A challenge
Mus musculus [16] = assay: Anti-inflammatory activity in mouse model of concanavalin A-induced hepatitis assessed as reduction in MCP1 level at 10 to 100 mg/kg, po dosed dosed 16 hrs and 1 hr before and 8 hrs after concanavalin A challenge
Mus musculus [17] = assay: Anti-inflammatory activity in mouse model of concanavalin A-induced hepatitis assessed as effect on IFNgamma level at 10 to 100 mg/kg, po dosed dosed 16 hrs and 1 hr before and 8 hrs after concanavalin A challenge
Mus musculus [18] = assay: Anti-inflammatory activity in mouse model of concanavalin A-induced hepatitis assessed as reduction in ALT level at 10 to 100 mg/kg, po dosed dosed 16 hrs and 1 hr before and 8 hrs after concanavalin A challenge
Mus musculus [19] = assay: Anti-inflammatory activity in mouse model of concanavalin A-induced hepatitis assessed as reduction in AST level at 10 to 100 mg/kg, po dosed dosed 16 hrs and 1 hr before and 8 hrs after concanavalin A challenge
Mus musculus [20] = assay: Therapeutic anti-inflammatory activity in mouse model of experimental autoimmune encephalomyelitis disease assessed as reduction in disease clinical scores at 3 to 10 mg/kg, sc BID for 12 days starting on day 9 after MOG peptide immunization
Mus musculus [21] = assay: Therapeutic anti-inflammatory activity in mouse model of experimental autoimmune encephalomyelitis disease assessed as reduction in disease clinical scores at 3 to 30 mg/kg, po BID for 21 days starting on day 9 after MOG peptide immunization
Mus musculus [22] = assay: Therapeutic anti-inflammatory activity in mouse model of collagen-induced arthritis disease assessed as reduction in cumulative arthritis scores at 10 to 30 mg/kg, sc BID for 3 weeks days starting on day 20 after collagen immunization
Mus musculus [23] = assay: Therapeutic anti-inflammatory activity in mouse model of collagen-induced arthritis disease assessed as effect on ankle thickness at 10 to 30 mg/kg, sc BID for 3 weeks days starting on day 20 after collagen immunization
Mus musculus [24] = assay: Therapeutic anti-inflammatory activity in mouse model of collagen-induced arthritis disease assessed as reduction in cumulative arthritis scores at 10 to 50 mg/kg, po BID for 3 weeks days starting on day 20 after collagen immunization
Mus musculus [25] = assay: Therapeutic anti-inflammatory activity in mouse model of collagen-induced arthritis disease assessed as effect on ankle thickness at 10 to 50 mg/kg, po BID for 3 weeks days starting on day 20 after collagen immunization
Rattus norvegicus [26] = assay: Therapeutic anti-inflammatory activity in rat model of experimental autoimmune encephalomyelitis disease assessed as reduction in disease severity clinical scores at 0.3 to 10 mg/kg, po QD starting on day 10 after MOG peptide immunization
Mus musculus [27] = assay: Anti-inflammatory activity in mouse model of concanavalin A-induced hepatitis assessed as reduction in TNFalpha level at 1 to 10 mg/kg, po dosed dosed 16 hrs and 1 hr before and 8 hrs after concanavalin A challenge
Mus musculus [28] = assay: Anti-inflammatory activity in mouse model of concanavalin A-induced hepatitis assessed as reduction in IL6 level at 1 to 10 mg/kg, po dosed dosed 16 hrs and 1 hr before and 8 hrs after concanavalin A challenge
Mus musculus [29] = assay: Anti-inflammatory activity in mouse model of concanavalin A-induced hepatitis assessed as reduction in MCP1 level at 1 to 10 mg/kg, po dosed dosed 16 hrs and 1 hr before and 8 hrs after concanavalin A challenge
Mus musculus [30] = assay: Anti-inflammatory activity in mouse model of concanavalin A-induced hepatitis assessed as effect on IFNgamma level at 1 to 10 mg/kg, po dosed dosed 16 hrs and 1 hr before and 8 hrs after concanavalin A challenge
Mus musculus [31] = assay: Anti-inflammatory activity in mouse model of concanavalin A-induced hepatitis assessed as reduction in ALT level at 1 to 10 mg/kg, po dosed dosed 16 hrs and 1 hr before and 8 hrs after concanavalin A challenge
Mus musculus [32] = assay: Anti-inflammatory activity in mouse model of concanavalin A-induced hepatitis assessed as reduction in AST level at 1 to 10 mg/kg, po dosed dosed 16 hrs and 1 hr before and 8 hrs after concanavalin A challenge

Measured: Activity

CN(C1CC1)S(=O)(=O)c1ccc(-c2cnc(N)c(-c3ccc4c(c3)CCNC4=O)c2)cc1
active: Mus musculus [1] | Mus musculus [2] | Mus musculus [3] | Mus musculus [4] | Mus musculus [5] | Mus musculus [6] | Rattus norvegicus [7] Dose-dependent effect | Mus musculus [8] | Mus musculus [9] | Rattus norvegicus [10] | Rattus norvegicus [11] | Rattus norvegicus [12] | Rattus norvegicus [13] | Mus musculus [14] | Mus musculus [15] | Mus musculus [16] | Mus musculus [17] | Mus musculus [18] | Mus musculus [19]

CN(C1CC1)S(=O)(=O)c1ccc(-c2cnc(N)c(-c3ccc4c(c3)CCNC4=O)n2)cc1
active: Mus musculus [20] Dose-dependent effect | Mus musculus [21] Dose-dependent effect | Mus musculus [22] | Mus musculus [23] | Mus musculus [24] | Mus musculus [25]

N#CC1(c2ccc(-c3cnc(N)c(-c4ccc5c(c4)CCNC5=O)n3)cc2)CC1
active: Rattus norvegicus [26] | Mus musculus [27] | Mus musculus [28] | Mus musculus [29] | Mus musculus [30] | Mus musculus [31] | Mus musculus [32]
